No end group written: not given here.
Tests used:
[1] = tested on: malignant cell lines; test: Proliferation of malignant cell lines over seven days in culture; type: cell-based, human; design: effect of increased dose on proliferation of malignant cell lines: dose or concentration left out as unconfirmed; conditions: ten fold increase in dose
Experimental: A number of cell lines representing different malignancies were grown in culture for seven days, and HXP peptide or the control peptide CXP were added to a final concentration of 20 μg/ml on day 3. The bars represent the fold increase of each cell line over the seven days; the empty, dashed bars indicate the CXP peptide treated cells, whilst the solid bars indicate the addition of HXP peptide. Error bars represent the standard error the mean, and n is the number of experiments performed. The cell lines used were: AML—KG1a; Bladder—HT; Breast—SKBR3; Cervical—HeLa; Colon—Colo41; Gastric—MKN-45; Large cell lung cancer—MES; Melanoma—DX3; Ovarian—1847; Pancreatic—Panc-Tu1; Prostate—LNCAP; Renal—HT1376; Small cell lung cancer—NCI-h510A. The change in the expression of the HOX genes expressed by each cell line was assessed by RT-PCR on RNA extracted from the cells at the end of seven days. ‘HOX gene inactivated’ means that the level of expression of each of the listed HOX genes was at least five fold lower in the HXP peptide treated cells compared to the control. *Analysis not yet complete.
A number of cell lines representing different malignancies were grown in culture for seven days, and HXP peptide or the control peptide CXP were added to a final concentration of 200 μg/ml on day 3. The bars represent the fold increase of each cell line over the seven days; the empty, dashed bars indicate the CXP peptide treated cells, whilst the solid bars indicate the addition of HXP peptide. Error bars represent the standard error the mean, and n is the number of experiments performed. The cell lines used were: Bladder—HT; Cervical—HeLa; Melenoma—DX3; Pancreatic—Panc-Tu1.
Solid tumour cell lines (Cancer Research UK) were seeded at 4×10^4 cells/ml, in a liquid culture system made of appropriate medium (see table, Sigma-Aldrich, UK) supplemented with 10% FCS (Sigma Aldrich) and penstrep (1% Sigma). All cell lines were grown with HXP peptide (as in Example 3, 20 μg/ml or 200 μg/ml) or control peptide CXP (20 μg/ml or 200 μg/ml).
KG1a, KG1, HL60 and U937 cell lines (EACC, UK) were seeded at 5×10^4 cells/ml, in a liquid culture system made of RPMI-1640 medium (Life Technologies, UK) supplemented with 10% FCS (Sigma Aldrich) and gentamicin (50 μg/ml Life Technologies) in triplicates. All cell lines were grown with HXP peptide peptide (20 μg/ml) or control peptide (20 μg/ml).
Cell lines were cultured for various time points at 37° C., 5% CO2 in humidified atmosphere and enumerated at various time points.

[2] = tested on: PBX1, 2 and 3 association with HOX proteins; test: Cross-linking and Western blot of PBX proteins in KG1a cells (Example 2); type: cell-based, human; conditions: 24 hours, 1 μM peptide, EDC cross-linking
Experimental: HXP and control peptides were as described in Example 1. KG1a cells were grown as described in Example 1. KG1a cells were cultured for 24 hours without treatment, or in the presence of 1 μM HXP peptide or control peptide. The cells were harvested and lysed. One aliquot of the cells was subject to cross-linking. Frozen cells were lysed using standard techniques and […] of lysate was incubated for 30 minutes at room temperature in 4 mM 1-ethyl-3-[3-(dimethyl-amino)propyl]carbodimide (EDC), 4 mM sulpho-NHS, 20 mM HEPES (pH 7.5), 5 mM MgCl2, and 0.03% (w/v) […] to cross-link non-covalently associated proteins. The reaction was stopped by the addition of ammonium acetate to a final concentration of 50 mM. The other aliquot was frozen without cross-linking.
Proteins were extracted from the cells of both aliquots by standard techniques and separated by gel electrophoresis. The gels were probed by Western blot with an antibody raised against PBX1, 2 and 3 (sc-888, Santa Cruz Inc. USA) or an anti-beta actin antibody (sc-1615, Santa Cruz Inc. USA).

[3] = tested on: AC133+ cells; test: Short-term ex-vivo AC133+ cell expansion culture with HXP peptide, trypan blue cell count; type: cell-based, human; conditions: HXP peptide withdrawn at 7 days, Hox B4 protein 20 μg/ml added
Experimental: Umbilical Cord Blood (UCB) specimens were collected from full-term deliveries scheduled for elective caesarian sections following hospital ethical regulations.
Samples were diluted 1 in 4 in PBS supplemented with a citrate-based anti-coagulant (0.6% ACD-A, Baxter, France) and Bovine Serum Albumin (0.5% fraction V, Sigma Aldrich, UK) at pH=7.4 and referenced as “ACD-A buffer”. Diluted UCB was carefully overlaid in a 1:4 ratio onto a research grade Ficoll-Paque solution (d:1.077 g/cm^3, Pharmacia Biotech, Sweden) prior to Centrifugation (400 g, 30 minutes, 22° C.). The mononuclear cells (MNC) layer was extracted, washed twice in ACD-A Buffer, pelleted (400 g, 10 minutes) before resuspending in ACD-A buffer and cell aliquots taken for cell viability/enumeration using trypan blue (Sigma Aldrich).
AC133+ cells were obtained from MNC after immunomagnetic separation using the AC133 mini-MACS selection kit (Miltenyi Biotec, Germany): labelling volume 500 μl/10^8 cells in ACD-A buffer containing Fc Receptor-blocking reagent (100 μl, 5 min incubation, 4° C.) before adding colloidal super-paramagnetic MACS MicroBeads conjugated to monoclonal mouse anti-human AC133/1 antibody (100 μl IgG1 isotype, 25 min incubation, 4° C.). Cells were then washed (5 ml ACD-A buffer, 400 g, 10 min, 4° C.) before resuspended cells in 500 μl ACD-A buffer were applied to a chilled MACS positive selection column (MS+/RS+) on a magnet. The column was rinsed with cool ACD-A buffer (4×500 μl) and the AC133− cell population retained at 4° C. After magnet removal AC133+ cells were eluted with 1 ml of cold ACD-A buffer. The AC133+ cell fraction was reapplied to a new column, prior to cell enumeration and viability assays.
AC133+ cells were seeded in duplicate in liquid culture system at 2-4×10^4 cells/ml. […] Cultured cells were then counted at various time points using trypan blue exclusion method described above.

[4] = Stability in human serum at 37° C., denaturing PAGE and silver stain
Experimental: 30 μg of HXP(10) or HXP peptide were incubated in 50 μl of human serum at 37° C. for the times shown. Samples were run on a denaturing PAGE and silver stained.

[5] = comparison with other peptide based pharmaceuticals; cited from earlier work
[6] = tested on: PBX/HOX dimers; test: Western blotting of PBX and PBX/HOX dimers in CD133+ cells (Example 3); type: cell-based, human; conditions: 20 μg/ml, EDC cross-linking
Experimental: CD133+ cells (another name for AC133+ cells) were seeded in duplicate at 4×10^4 cells/ml in IMDM (Life Technologies), 10% FCS (Sigma Aldrich) and gentamycin (50 μg/ml Life Technologies) and Thrombopoietin (TPO) 10 ng/ml, Flt3-Ligand (FL) 50 ng/ml & c-KitL (K) 20 ng/ml), all obtained from R and D systems Ltd., UK. (Forraz et al., 2002). The HXP peptide (N-term: WYPWMKKHHRQIKIWFQNRRMKWKK: C-term; Eurogentec, Belgium) and control CXP peptide (N-term: WCCLADRHGRQIKIWFQNRRMKWKK: C-term; Eurogentec, Belgium) were added to culture medium at a concentration of 20 μg/ml. To withdraw peptides from culture, cells were washed twice in IMDM or RPMI and reseeded at prewash cell densities. Primary cells were cultured for 3 weeks at 37° C., 5% CO2 in humidified atmosphere and enumerated by a […] exclusion method with a heamocytometer.
Protein was extracted from HXP-treated or CXP-treated CD133+ cells (20 μg/ml). C-20 antibody that recognises all three human PBX gene proteins (sc-888, Santa Cruz Biotechnology Inc., USA; Monica et al., 1991). Protein cross linking was performed with 2 mM 1-ethyl-3-[3-(dimethylamino)propyl]carbodiimide (EDC) (Pierce Biotechnology, USA), in cell lysates diluted 1:10 in conjugation buffer (0.1M 2-[N-morpholino]ethane sulphonic acid, pH 5). […]

In the case of “WAPWEDDHHRQIKIWFQNRRMKWKK (Control Peptide) [reference compound]”, the “effect of increased dose on proliferation of malignant cell lines” value [1] is reported as “no significant affect on proliferation” and the “association of PBX proteins with other proteins (HOX proteins)” value [2] is reported as “associated with-other proteins”.

For “HOX B4: recombinant full length Xenopus laevis sequence”, the “AC133+ cell proliferation after HXP peptide withdrawal and co-stimulation with HOX B4” value [3] was “reverted to near control levels”.

Substance WYPWMKKHHR [HXP4(10), WYPWMKKHHR] has a half-life [4] of about 4 h.

In the case of low molecular weight heparin, the serum half life [5] is given as “thirty”.

For “WCCLADRHGRQIKIWFQNRRMKWKK (WCCLADRHGRQIKIWFQNRRMKWKK) [CXP, reference compound]”, the “binding of PBX to other proteins / formation of PBX/HOX dimers” value [6] was “not”.
